Data on 3 compounds can be found in patent publication US20250249001A1, “METHODS OF TREATING SUBSTANCE USE DISORDER WITH 4-(3-CYANOPHENYL)-6-PYRIDINYLPYRIMIDINE MGLU5 NEGATIVE ALLOSTERIC MODULATORS” (Tempero Bio, Inc., priority 2022, published 2025).

Series [1] has as its system voluntary home-cage alcohol drinking by Wistar rats. In words: Home-cage two-bottle choice alcohol drinking, acute treatment. The format is in vivo. The settings on record: for alcohol intake at the 24-hr measurement interval, comparison of equivalent doses / alcohol drinking at 1-hr of access vs vehicle control, positive control comparison: each drug 3 mg/kg i.p. acute; for alcohol drinking at 1-hr of access vs vehicle control, positive control comparison: N=11. How it is done:
Animals: Male Wistar rats (Charles River Laboratories, INC) were used in these studies. Rat housing and testing was conducted at the University of North Carolina at Chapel Hill (UNC-CH) School of Medicine in a state-of-the-art rodent vivarium approved by the Association for Assessment and Accreditation of Laboratory Animal Care International (AAALAC). Rat health was monitored daily by study investigators and veterinarians in the Division of Comparative Medicine UNC. All experimental procedures were carried out in accordance with the NIH Guide to Care and Use of Laboratory Animals (Committee for the Update of the Guide for the Care and Use of Laboratory Animals, 2011) and institutional guidelines.
Rats were housed individually in standard Plexiglas cages with standard rodent food and water available ad libitum. Upon arrival from the vendor, rats were given 7 days to acclimate to the vivarium during which they were weighed and handled by an investigator each day to monitor general health and habituate them to human contact. Rats were then weighed each day within 1-h of experimental procedures to calculate drug dosages relative to body weight. […] The colony was maintained at […] on a 12-hour light/dark cycle, with the lights on from 10 AM-10 PM. All behavioral experiments were conducted during the light portion of the light cycle.
Home-cage alcohol drinking method. Oral alcohol and water intake were examined using a two-bottle choice protocol, which is standard in the field and commonly used in our laboratory. Male Wistar rats (n=12) were first adapted to drinking from a 50 ml conical tube fitted with a standard stainless-steel ball bearing sipper tube that limits spillage. Then, two bottles were place on the cage daily. One bottle contained an alcohol solution and the other contained water. Bottles containing fresh solutions were weighed daily before and after a 24 hr access period. After drug treatment, bottles were weighed after 1 hr and 24 hrs of access. Each week, rats had 4-5 days of sweetened alcohol and water available and the remaining days only water.
Briefly, rats were first exposed to alcohol (10% v/v)+sucrose (5% w/v). versus water in the two bottles. Then, over a period of 6-weeks, the concentrations of alcohol and sucrose were gradually adjusted to alcohol (8% v/v)+sucrose (2% w/v) to achieve intake of pharmacologically relevant doses of alcohol. Rats were maintained at this concentration for the duration of the experiment for both acute (3.1.a) and chronic (3.1.b) home-cage drinking studies. Use of sweetened alcohol solutions in preclinical research provides face validity to the binge-intoxication stage of alcohol addiction in humans where sweeteners are commonly added to alcohol.
Compound 1 treatment. After establishing baseline intake of sweetened alcohol and water, rats were habituated to i.p. injections. All rats (N=12) were administered 3 habituation injections of vehicle (10% w/v kolliphor in BCD (10%)) prior to the Compound 1 dose response curve and alcohol intake was measured. Then, the Compound 1 dose response curve was conducted with dose order randomized according to a modified Latin-Square design. Rats were given a minimum of 1-2 days between injections to ensure normal drinking was re-established in absence of drug administration. Each dose of Compound 1 (0-10 mg/kg) was administered via i.p. injection and rats were placed back in the home-cage for 1 hr prior to the return of sweetened alcohol and water. Alcohol intake was measured after 1-h and 24-hrs of access in grams by weighing the drinking bottles. Data were excluded from 1 rat that emptied both bottles fully each day without drinking the solutions; thus, results are presented for a final group of N=11 rats.
Efficacy comparisons to MPEP and Naltrexone. […]

Series [2] relates to cue-induced reinstatement of alcohol-seeking behavior in Wistar rats. To be noted: earlier work of the authors; cited from earlier work.
In series [3] the test system is operant alcohol self-administration in Wistar rats. In words: Operant alcohol self-administration (FR-1), acute treatment. The format is in vivo. The settings on record: 3 mg/kg IP, 1-h pretreatment. From the text: Twelve operant conditioning chambers designed for rats (30.5 cm×24.1 cm×21.0 cm; Med Associates, Georgia, VT) were located within sound-attenuating cubicles in a devoted room to limit extraneous potential impact by extraneous environmental variables. Each cubicle was equipped with an exhaust fan that provided ventilation and masked external sounds. The chambers were electronically interfaced to a Microsoft Windows based computer that was programmed using investigator developed software to control sessions and record number of lever press responses at 100-ms intervals.
The right wall of each chamber contained a liquid receptacle and a response lever (Med Associates) that was termed the active lever. Lever press responses on the active lever activated a syringe pump (PHM-100, Med Associates) that delivered 0.1 ml of alcohol solution (ethanol 8% v/v+sucrose 2% w/v) into the receptacle over a 1.66-s period. Head entries into the liquid receptacle were recorded when an infrared photo beam was broken. A stimulus light located above the response lever was illuminated during pump activation. Lever presses during reinforcer delivery were recorded but produced no programmed consequence. […] Behavior on this lever serves as a control for motor disruptions and other nonspecific effects of test compounds. […]
Testing the efficacy of Compound 1 to reduce the reinforcing, or rewarding, effects of alcohol. Following establishment of stable baseline self-administration behavior, effects of pre-session treatment with the novel mGluR5 negative allosteric modulator Compound 1 (0, 0.3, 1, 3, and 10 mg/kg, IP) were evaluated on operant alcohol self-administration behavior (n=12 rats). […] Parameters of operant performance were measured, including total lever press responses, number of headpokes into the liquid receptacle, and rate of operant responding, which is a direct measure of positive reinforcement function. […]

The subject of series [4] is cocaine reinstatement in rats. In words: Yohimbine-induced reinstatement of cocaine self-administration (Stage II). It is filed as in vivo, Sprague-Dawley rats. How it is done:
After completion of Stage I, the rats were re-trained with cocaine for one week to ensure stable baseline. And then the rats underwent a 6-day extinction training procedure in which only saline infusion occurred when active lever was pressed. Meanwhile, the rats were divided into 3 roughly even groups for pharmacological stressor-induced reinstatement—All rats received one injection of alpha-2 adrenergic antagonist yohimbine (2 mg/kg) and then placed into the training box immediately). Thirty min before yohimbine treatment, one group of rats received saline, another group received MTEP 3 mg/kg injection, and the 3rd group received Compound 1 at 3 mg/kg.
Yohimbine-induced reinstatement was re-tested two more times in the same rats 3 days and 6 days after the first test, under continuous extinction procedure (There were 2 more days of extinction training between the 1st and 2nd reinstatement test, and between the 2nd and 3rd reinstatement test). Using the 3×3 within subject design, each given animal goes through all three treatments (saline, MTEP and Compound 1) across the three rounds of test.
(§1) A one-way mixed-effects model (REML) of ANOVA followed by Dunnett's post hoc tests were used to analyze efficacy of Compound 1 and MTEP on cocaine self-administration in stages I (The repeated measure ANOVA was not totally applicable due to a few outlier data points, which are removed), and one-way mixed-effects model (REML) of ANOVA followed by Tukey's post hoc tests were used in Stage II. An effect was considered significant if P<0.05. Data were represented as the mean and standard error to the mean (s.e.m).
Statistical outliers which exceeded mean +/− (2× standard deviation) of the group were removed from the analysis. Also, for reinstatement, the extinction time was shortened (from 9 days plus extension as option to 6 days). In the present study, 3 rounds of reinstatement tests were performed, and we wished to maintain the reinstatement power, thus we cut extinction duration. Accordingly, we loosened the extinction criterion from 6 or less infusions to 9 or less infusions during the last extinction session. With this criterion, 17 out of 21 rats were eligible in drug test in Stage II.

Series [5] has as its system oxycodone reinstatement in rats. In words: Yohimbine-induced reinstatement of oxycodone self-administration. It is filed as in vivo, Sprague-Dawley rats. To be noted: yohimbine 2 mg/kg; P<0.001. How it is done:
Evaluation of Compound 1 on Oxycodone Reinstatement. After completion of testing rats were re-trained with oxycodone for one week to ensure stable baseline. Rats then underwent a 6-day extinction where only saline infusion occurred when active lever was pressed. Meanwhile, the rats were divided into 3 groups: All rats received one injection of alpha-2 adrenergic antagonist yohimbine (2 mg/kg) with 0 min pretreatment (rats were placed into the training box immediately). Thirty minutes before yohimbine treatment, one group of rats received saline, another group received MTEP 3 mg/kg injection, and the 3rd group received Compound 1 (3 mg/kg). Yohimbine-induced reinstatement was re-tested two more times in the same rats 3 days and 6 days after the first test, under continuous extinction procedure.
as §1, with “Statistical Analysis. Prism 9.40 software package Version 9 was used for statistical analysis and graphing. The number of active lever responses were recorded during each session and compared between treatment groups. A one-way” for “A one-way”, “MTEP on oxycodone self-administration in” for “MTEP on cocaine self-administration in”, “mean (s.e.m). Statistical outliers which exceeded mean +/− (2× standard deviation) of the group were removed from the analysis.” for “mean (s.e.m).”

Setting [6] is: yohimbine 2 mg/kg after saline pretreatment.

Turning to `Cc1cccc(C#Cc2ccccc2)n1` [MPEP, reference compound], in series [1], the “alcohol intake at the 24-hr measurement interval, comparison of equivalent doses” value is “only Compound 1 (3 mg/kg) maintained efficacy” and the “alcohol drinking at 1-hr of access vs vehicle control, positive control comparison” value was “significantly decreased alcohol drinking”. Also, the “cue-induced reinstatement in rats” value in series [2] was “blocks cue-induced reinstatement”.

As to `O=C1CC[C@@]2(O)[C@H]3Cc4ccc(O)c5c4[C@@]2(CCN3CC2CC2)[C@H]1O5` [Naltrexone, reference compound], the “H2O intake after 24-hr access” value in series [1] (3 mg/kg i.p., Compound 1 or comparison compounds) is on record as “no effect”. Moreover, the “water intake after 1-hr access” value in series [1] (Compound 1 0-10 mg/kg, or Compound 1, MPEP, Naltrexone 3 mg/kg i.p.) is “did not reach statistical significance”. For the same compound, in series [1], the “alcohol intake at the 24-hr measurement interval, comparison of equivalent doses” value is listed as “only Compound 1 (3 mg/kg) maintained efficacy” and the “alcohol drinking at 1-hr of access vs vehicle control, positive control comparison” value is given as “significantly decreased alcohol drinking”. Besides, in series [3], the “EtOH reinforced responses vs vehicle, multiple comparisons” value was “reduced EtOH reinforced responses”.

As for `COC(=O)[C@@H]1[C@H]2C[C@H]3c4[nH]c5ccccc5c4CCN3C[C@@H]2CC[C@@H]1O` [Yohimbine, yohimbine], in series [4] (setting [6]), the “cocaine reinstatement, Mean Diff., Last Day of Cocaine Retraining vs. Saline - Yohimbine 2 mg/kg” value is on record as 6.294 and the “cocaine reinstatement, Mean Diff., Last Day of Extinction vs. Saline - Yohimbine 2 mg/kg” value was −14.53. Also, the “reinstatement of cocaine self-administration after extinction” value in series [4] (yohimbine 2 mg/kg, P<0.001) is “induced significant reinstatement”. Besides, the “reinstatement of oxycodone self-administration relative to extinguished level” value in series [5] was “induced significant reinstatement”.
